Results taken from patent US8772268B2, “Bisphosphonamidate prodrugs and uses thereof” (The Johns Hopkins University, priority 2010, dated 2014).

Key:
A549/ATCC = experiment: NCI-60 DTP Human Tumor Cell Line Screen; format: cell-based; conditions: Non-Small Cell Lung Cancer, 48 h
KM12 = experiment: NCI-60 DTP Human Tumor Cell Line Screen; format: cell-based; conditions: KM12, Colon Cancer, 48 h
P. falciparum (NF54) = experiment: Antimalarial [3H]-hypoxanthine incorporation assay; format: cell-based, Plasmodium falciparum; conditions: P. falciparum (NF54); read-out: IC50
Description: Plasmodium falciparum culture. NF54 P. falciparum parasites were maintained in O+ positive erythrocytes (obtained weekly from a rotating pool of screened healthy donors) in complete medium containing RPMI (Sigma), 25 mM N-2-hydroxyethylpiperazine-N′-2-ethanesulfonic acid (HEPES; Sigma), 27 mM sodium bicarbonate (Sigma) and 10% heat-inactivated male O+ serum in non-vented flasks. Hematocrit was maintained at 2.4%. Flasks were gassed with a mixture of 3% oxygen, 4% carbon dioxide, 93% nitrogen. Parasitemia was maintained at 0.1-5% by changing medium and erythrocytes two to three times a week.
Antimalarial activity was measured using a [^3H]-hypoxanthine incorporation assay as described previously (Desjardins et al., Antimicrob. Agents Chemother., vol. 16, p. 710, 1979; Milhous et al., Antimicrob. Agents Chemother., vol. 27, np. 525, 1985). […] For surveys, each concentration was assayed in triplicate while in expansions, each concentration was assayed in quadruplicate. To each well, 0.64 μCi of [^3H]-hypoxanthine (10-30 Ci/mmol; Perkin Elmer) was added and the plate was incubated for an additional 20 to 24 h. Samples from each well were harvested on filter paper and tritium counts were measured on the Beckmann Coulter LS6500 scintillation counter. […] Values considered as outliers according to Chauvenet's criterion were discarded and dropped from analysis. One survey and at least one expansion was performed for each compound.

HL-60(TB) = experiment: NCI-60 DTP Human Tumor Cell Line Screen; format: cell-based; conditions: Leukemia, 48 h
BT-549 = experiment: NCI-60 DTP Human Tumor Cell Line Screen; format: cell-based; conditions: BT-549, Breast Cancer, 48 h
IGROV1 = experiment: NCI-60 DTP Human Tumor Cell Line Screen; format: cell-based; conditions: IGROV1, Ovarian Cancer, 48 h
CCRF-CEM = experiment: NCI-60 DTP Human Tumor Cell Line Screen; format: cell-based; conditions: Leukemia, 48 h
MDA-MB-468 = experiment: NCI-60 DTP Human Tumor Cell Line Screen; format: cell-based; conditions: MDA-MB-468, Breast Cancer, 48 h
TK-10 = experiment: NCI-60 DTP Human Tumor Cell Line Screen; format: cell-based; conditions: TK-10, Renal Cancer, 48 h
OVCAR-8 = experiment: NCI-60 DTP Human Tumor Cell Line Screen; format: cell-based; conditions: OVCAR-8, Ovarian Cancer, 48 h
A498 = experiment: NCI-60 DTP Human Tumor Cell Line Screen; format: cell-based; conditions: A498, Renal Cancer, 48 h
OVCAR-3 = experiment: NCI-60 DTP Human Tumor Cell Line Screen; format: cell-based; conditions: OVCAR-3, Ovarian Cancer, 48 h
SR = experiment: NCI-60 DTP Human Tumor Cell Line Screen; format: cell-based; conditions: Leukemia, 48 h
caspases 3/7 = experiment: Caspase Glo 3/7 assay; format: cell-based; conditions: higher drug concentrations, by 48 hours
Description: Caspase Glo 3/7 (Promega) assay was used to determine caspases 3/7 activation following treatment of cells with clodronate prodrug. Briefly, cells were treated with clodronate prodrug for 24, 48, or 72 h. Caspase glo 3/7 (Promega) reagent ([…]) was added to each well at 24, 48 or 72 h. The cells were then incubated at room temperature for 1 h, and the luminescence of each well was determined using a luminometer.

SW-620 = experiment: NCI-60 DTP Human Tumor Cell Line Screen; format: cell-based; conditions: SW-620, Colon Cancer, 48 h
A549 NSCLC cells = experiment: Effect of drug treatment time (MTS, drug removed); format: cell-based; conditions: A549, 24 or 2 h exposure, viability measured after 48 h
Description: Cell proliferation was determined using the CellTiter 96 Aqueous One Solution Cell Proliferation Assay MTS assay. A549 NSCLC cells were plated at 1.5×10^3 cells per well in flat bottom 96 well plates in 99 μL of media and allowed to adhere overnight. The drugs were serially diluted in 100% DMSO. For each drug treatment group, 1 μL of a 100× stock solution was added to each well for a final DMSO concentration of 1%. Cells were treated for 2, 24, or 48 under normoxic or hypoxic (1-3% oxygen) conditions. Following 2 or 24 h, media containing drug was removed, the cells were washed 1× with fresh media, and 100 μL fresh media was added to each well. Cells were then allowed to grow for an additional 46 or 24 h in drug free media. After 48 h, cells were incubated with MTS dye (20 μL well^−1) for 40 min to 2 h. Absorbance at 490 nm was determined using a SpectraMax M2 (Molecular Devices) plate reader. The percent cell proliferation was calculated by converting the experimental absorbance to percentage of control, which was then plotted vs. drug concentration. The IC50 values were determined using a non-linear dose-response analysis in GraphPad Prism version 4.0.
A549 cells were treated with prodrug 14 for 24 or 2 h. Prodrug was removed and cell viability measured after 48 h using a standard MTS assay. Longer exposure to […] results in lower […].

MDA-MB-435 = experiment: NCI-60 DTP Human Tumor Cell Line Screen; format: cell-based; conditions: MDA-MB-435, Melanoma, 48 h
UO-31 = experiment: NCI-60 DTP Human Tumor Cell Line Screen; format: cell-based; conditions: UO-31, Renal Cancer, 48 h

**Q.** Which results are given for `CN(CCCCCl)P(=O)(OCc1ccc([N+](=O)[O-])cc1)C(Cl)(Cl)P(=O)(OCc1ccc([N+](=O)[O-])cc1)N(C)CCCCCl` (stereo not drawn) [compound 14]?
**A.** Log10GI50 (A549/ATCC): −5.37; Log10LC50 (A549/ATCC): >−4.00; Log10TGI (A549/ATCC): >−4.00; Log10GI50 (KM12): −5.46; Log10LC50 (KM12): >−4.00; Log10TGI (KM12): >−4.00; IC50 (P. falciparum (NF54)): 980 ± 210 nM; Log10GI50 (HL-60(TB)): −5.39; Log10LC50 (HL-60(TB)): >−4.00; Log10TGI (HL-60(TB)): >−4.00; Log10GI50 (BT-549): −5.50; Log10LC50 (BT-549): >−4.00; Log10TGI (BT-549): −5.03; Log10GI50 (IGROV1): −5.39; Log10LC50 (IGROV1): >−4.00; Log10TGI (IGROV1): >−4.00; Log10GI50 (CCRF-CEM): −5.50; Log10LC50 (CCRF-CEM): >−4.00; Log10TGI (CCRF-CEM): >−4.00; Log10GI50 (MDA-MB-468): −5.58; Log10LC50 (MDA-MB-468): >−4.00; Log10TGI (MDA-MB-468): −5.07; Log10GI50 (TK-10): −5.35; Log10LC50 (TK-10): >−4.00; Log10TGI (TK-10): >−4.00; Log10GI50 (OVCAR-8): −5.38; Log10LC50 (OVCAR-8): >−4.00; Log10TGI (OVCAR-8): >−4.00; Log10GI50 (A498): −5.74; Log10LC50 (A498): >−4.00; Log10TGI (A498): −5.17; Log10GI50 (OVCAR-3): −5.40; Log10LC50 (OVCAR-3): >−4.00; Log10TGI (OVCAR-3): >−4.00; Log10GI50 (SR): −5.43; Log10LC50 (SR): >−4.00; Log10TGI (SR): >−4.00; caspases 3/7 activation (caspases 3/7): Activation of caspases 3/7; Log10GI50 (SW-620): −5.27; Log10LC50 (SW-620): >−4.00; Log10TGI (SW-620): >−4.00; growth inhibition over shorter drug treatment times (A549 NSCLC cells): more potent growth inhibition than zoledronate; Log10GI50 (MDA-MB-435): −5.55; Log10LC50 (MDA-MB-435): >−4.00; Log10TGI (MDA-MB-435): −4.65; Log10GI50 (UO-31): −5.76; Log10LC50 (UO-31): >−4.00; Log10TGI (UO-31): >−4.00
